Results as given in US7030145B2, “Pyridinyl derivatives for the treatment of depression” (Bristol-Myers Squibb Company, priority 2003, dated 2006).

Columns and labels:
[1] = biological target: T1, cloned human CRF-R1 receptors (Homo sapiens, UniProt P34998); experiment: CRF-R1 receptor binding assay (inhibition of 125I-ovine-CRF binding to cell membranes); conditions: membranes of 293EBNA cells transfected with hCRFR1, class d = reported as percent inhibition at 10 μM, figures not given, read-out: activity (Ki class in the CRF assays)
T1 construct: the coding region was amplifies by PCR from start to stop codons; expressed in transfected cells; membranes
T1 sequence (P34998 24-415): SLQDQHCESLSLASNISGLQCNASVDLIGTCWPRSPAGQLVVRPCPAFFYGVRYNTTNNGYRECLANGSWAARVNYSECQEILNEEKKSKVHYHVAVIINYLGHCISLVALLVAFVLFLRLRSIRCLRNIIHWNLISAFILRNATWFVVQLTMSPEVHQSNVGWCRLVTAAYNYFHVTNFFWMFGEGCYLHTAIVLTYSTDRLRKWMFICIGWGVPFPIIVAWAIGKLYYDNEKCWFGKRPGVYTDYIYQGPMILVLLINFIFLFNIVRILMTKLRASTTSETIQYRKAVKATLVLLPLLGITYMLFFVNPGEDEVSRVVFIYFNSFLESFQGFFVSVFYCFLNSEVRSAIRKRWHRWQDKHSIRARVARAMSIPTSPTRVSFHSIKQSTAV
In short: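 Membranes from hygromycin-selected 293EBNA cells expressing human CRF-R1 were incubated for 2 h at room temperature with 150 pM 125I-ovine-CRF and test drug at 10^−10–10^−5 M final, in pH 7.0 HEPES buffer with MgCl2 and EGTA. Bound ligand was collected by filtration and gamma-counted, and Ki values were derived by iterative curve fitting.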

SMILES | Ki [1] | melting point
CCc1ccc(S(=O)(=O)c2ccc(C)nc2Nc2ccc(OC)cc2Cl)cc1 [Example 69, (2-Chloro-4-methoxyphenyl)-[3-(4-ethylbenzenesulfonyl)-6-methylpyridin-2-yl]-amine] | 100 to 500 nM | 110 to 112 °C
Cc1cc(C)c(Nc2nc(C)ccc2S(=O)(=O)c2ccc(OCc3ccc(C#N)cc3)cc2)c(C)c1 [Example 23, 4-{4-[6-Methyl-2-(2,4,6-trimethylphenylamino)-pyridine-3-sulfonyl]-phenoxymethyl}-benzonitrile] | 100 to 500 nM | 208 to 210 °C
Cc1cc(C)c(Nc2nc(C)ccc2S(=O)(=O)c2ccc(OCc3cc(Cl)nc(Cl)c3)cc2)c(C)c1 [Example 20, {3-[4-(2,6-Dichloropyridin-4-ylmethoxy)-benzenesulfonyl]-6-methylpyridin-2-yl}-(2,4,6-trimethylphenyl)-amine] | 100 to 500 nM | 192 to 201 °C
Cc1cc(C)c(Nc2nc(C)ccc2S(=O)(=O)c2ccc(C(=O)c3ccccc3)cc2)c(C)c1 [Example 54, {4-[6-Methyl-2-(2,4,6-trimethylphenylamino)-pyridine-3-sulfonyl]-phenyl}-phenyl-methanone] | ≤ 100 nM | 222 to 225 °C
COc1ccc(C(C)=O)cc1COc1ccc(S(=O)(=O)c2ccc(C)nc2Nc2c(C)cc(C)cc2C)cc1 [Example 35] | 100 to 500 nM | 141 to 143 °C
Cc1cc(C)c(Nc2nc(C)ccc2S(=O)(=O)c2ccc(OCc3cccc(F)c3F)cc2)c(C)c1 [Example 33, {3-[4-(2,3-Difluorobenzyloxy)-benzenesulfonyl]-6-methylpyridin-2-yl}-(2,4,6-trimethylphenyl)-amine] | ≤ 100 nM | 136 to 138 °C
Cc1cc(C)c(Nc2nc(C)ccc2S(=O)(=O)c2ccc(Br)cc2)c(C)c1 [Example 46, [3-(4-Bromobenzenesulfonyl)-6-methylpyridin-2-yl]-(2,4,6-trimethylphenyl)-amine] | ≤ 100 nM | 140 to 141 °C
CCOC(=O)COc1ccc(S(=O)(=O)c2ccc(C)nc2Nc2c(C)cc(C)cc2C)cc1 [Example 17, {4-[6-Methyl-2-(2,4,6-trimethylphenylamino)-pyridine-3-sulfonyl]-phenoxy}-acetic acid ethyl ester] | 500 to 5000 nM | 116 to 118 °C
Cc1cc(C)c(Nc2nc(C)ccc2S(=O)(=O)c2ccc(OCc3c(C)cccc3C)cc2)c(C)c1 [Example 36, {3-[4-(2,6-Dimethylbenzyloxy)-benzenesulfonyl]-6-methyl-pyridin-2-yl}-(2,4,6-trimethylphenyl)-amine] | ≤ 100 nM | 136 to 138 °C
Cc1cc(C)c(Nc2nc(C)ccc2S(=O)(=O)c2ccc(OCc3ccc(F)cc3)cc2)c(C)c1 [Example 22, {3-[4-(4-Fluorobenzyloxy)-benzenesulfonyl]-6-methylpyridin-2-yl}-(2,4,6-trimethylphenyl)-amine] | 100 to 500 nM | 178 to 180 °C
